{"source": "paper PMC9127232", "about": "“Wound Healing Properties of Jasione montana Extracts and Their Main Secondary Metabolites” (Frontiers in Pharmacology, 2022)", "key": {"[1]": {"tested_on": "normal human dermal fibroblast cell line (PCS-201-012)", "assay": "Scratch proliferation and migration assay", "type": "cell-based", "settings": "24 h; for cell migration into the injured area: up to 100 μg/mL", "experimental": "The normal human dermal fibroblast cell line (PCS-201-012) was cultured in DMEM blended with 10% fetal bovine serum (FBS), 10 μg/mL streptomycin, and 10 units/mol penicillin. The cells were cultured in 5% CO2 and fully humidified at 37°C. All tested compounds were dissolved at a final vehicle (DMSO) concentration of not more than 0.5% (v/v). Cells cultured in drug-free DMEM were used as controls, and cells treated with DMSO alone were used as solvent controls. All extracts (JM1-JM6) and the main components of the tested extracts (9, 12, and 22) were analyzed at the following concentrations: 10, 25, 50, 100, 200, and 300 μg/mL. The in vitro wound healing activity of J. montana extracts and isolated compounds was determined by a scratch assay, which is a model of a wound in which monolayer skin cells, including fibroblasts, react to the disruption of contact between cells and stimulate proliferation and migration by modulating the concentration of growth factors and cytokines at the edge wounds ([Liang et al., 2007]). For this purpose, fibroblast cells were seeded at a density of 2.5 × 10^5 in 6-well cell culture dishes and incubated for 24 h at 37°C. After incubation, a linear scratch was made with a universal sterile 200 μL pipette tip. Cells were incubated with the tested extracts (JM1-JM6) and compounds (9, 12, and 22) at concentrations of 10, 25, 50, 100, 200 and 300 μg/mL for 24 h at 37°C. Allantoin, a plant-derived commercialized drug, was used as the positive control at a concentration of 50 μg/mL to judge the rate of cell migration ([[…] et al., 2020]). After incubation, the migrated cells were washed twice with PBS and observed under a phase contrast microscope. The progress of migration, proliferation and closing of the wound before and after treatment with the tested samples was monitored by imaging with a phase contrast microscope (Nikon Eclipse Ti, Tokyo, Japan) at × 100 magnification and NIS-Elements 3.0 imaging software (Nikon Instruments Inc., Melville, NY, United States)."}, "[2]": {"tested_on": "IL-1β in fibroblast cells (PCS-201-012)", "assay": "Cytometric Bead Array, IL-1β secretion", "type": "cell-based, human", "settings": "for IL-1β: BSR = below the standard range (lower than detection limit)", "experimental": "(§1) The normal human dermal fibroblast cell line (PCS-201-012) was cultured in DMEM blended with 10% fetal bovine serum (FBS), 10 μg/mL streptomycin, and 10 units/mol penicillin. The cells were cultured in 5% CO2 and fully humidified at 37°C. All tested compounds were dissolved at a final vehicle (DMSO) concentration of not more than 0.5% (v/v). Cells cultured in drug-free DMEM were used as controls, and cells treated with DMSO alone were used as solvent controls. All extracts (JM1–JM6) and the main components of the tested extracts (9, 12, and 22) were analyzed at the following concentrations: 10, 25, 50, 100, 200, and 300 μg/mL. The effect of the tested extracts and fractions (JM1–JM6) as well as 9, 12, and 22 on cytokine (IL-1β, IL-6 IL-8, IL-10, IL-12p70 and TNF) secretion was determined using the Cytometric Bead Array (CBA) Human Inflammatory Cytokine Kit according to the manufacturer’s protocols. After 24 h of incubation with the test samples at concentrations of 10, 25, 50, 100, 200, and 300 μg/mL, fibroblast cells were washed with PBS, trypsinized, resuspended in DMEM and centrifuged (1,200 rpm, 10 min, 4°C). The supernatant was then replaced with 50 μL of assay diluent with the addition of 50 μL of assay beads and 50 μL of PE-labeled antibodies (detection reagent) from the human inflammatory cytokine kit. Incubation was performed for 3 h at room temperature without daylight, after which the fibroblast cells were washed and centrifuged (1,200 rpm, 5 min, 4°C). The cell pellet was resuspended in 300 μL of wash buffer and then immediately subjected to analysis by FCAP Array v3 software on a BD FACSCanto II flow cytometer (both from BD Biosciences Systems, San Jose, CA, United States) calibrated with BD Cytometer Setup and Tracking beads (BD Biosciences, San Diego, CA, United States)."}, "[3]": {"tested_on": "IL-8 in fibroblast cells (PCS-201-012)", "assay": "Cytometric Bead Array, IL-8 secretion", "type": "cell-based, human", "settings": "24 h", "experimental": "as §1"}, "dermal fibroblast cells": {"tested_on": "dermal fibroblast cells", "parameters": "method as in Juszczak et al., 2021", "settings": "ref Juszczak et al., 2021; cited from earlier work"}}, "data": [{"smiles": "O=c1cc(-c2ccc(O)c(O)c2)oc2cc(O)cc(O)c12", "note": "[Compound 22, 5,7,3',4'-tetrahydroxyflavone]", "values": [{"measurement": "stimulation of fibroblast migration", "setting": "[1]; only at 10 μg/mL", "value": "capable of stimulating cells only at a low concentration"}, {"measurement": "IL-1β level", "setting": "[2]; 100 μg/mL, 24 h, control 13.4 ± 5.6 pg/mL", "value": "1.7 ± 1.1", "unit": "pg/mL"}, {"measurement": "IL-1β", "setting": "[2]; 200 μg/mL", "value": "BSR"}, {"measurement": "IL-1β", "setting": "[2]; 300 μg/mL", "value": "BSR"}, {"measurement": "IL-1β expression (in words)", "setting": "[2]; 200–300 μg/mL, 24 h", "value": "below the sensitivity of the method"}, {"measurement": "secretion of IL-1β (in words)", "setting": "[2]; all tested concentrations 10–300 μg/mL, 24 h", "value": "highest decrease"}, {"measurement": "IL-8 level", "setting": "[3]; 300 μg/mL, control 8,396.8 ± 2,771.1 pg/mL", "value": "60.8 ± 8", "unit": "pg/mL"}, {"measurement": "IL-8 expression (in words)", "setting": "[3]; 10–300 μg/mL", "value": "decrease in its expression was most pronounced"}, {"measurement": "cytotoxicity on dermal fibroblast cells (in words)", "setting": "dermal fibroblast cells", "value": "toxicity at the higher concentrations tested"}]}, {"smiles": "O=c1cc(-c2ccc(O)c(O)c2)oc2cc(O[C@@H]3O[C@H](CO)[C@@H](O)[C@H](O)[C@H]3O[C@@H]3OC[C@@H](O)[C@H](O)[C@H]3O)cc(O)c12", "note": "[Compound 9, luteolin 7-O-β-D-xylosyl-(1-2)-β-D-glucoside]", "values": [{"measurement": "effectiveness in the scratch test", "setting": "[1]; 50 μg/mL, comparable with allantoin 50 μg/mL", "value": "most effective"}, {"measurement": "cell migration into the injured area", "setting": "[1]", "value": "significantly increased"}, {"measurement": "IL-8 levels (in words)", "setting": "[3]; 10–100 μg/mL", "value": "significant increase"}, {"measurement": "IL-8 levels (in words)", "setting": "[3]; 100–300 μg/mL", "value": "reduced IL-8 levels"}]}, {"smiles": "O=c1cc(-c2ccc(O)c(O)c2)oc2cc(O[C@@H]3O[C@H](CO)[C@@H](O)[C@H](O)[C@H]3O)cc(O)c12", "note": "[Compound 12, luteolin 7-O-β-D-glucoside]", "values": [{"measurement": "cell migration into the injured area", "setting": "[1]", "value": "significantly increased"}, {"measurement": "IL-8 levels (in words)", "setting": "[3]; 100–300 μg/mL", "value": "reduced IL-8 levels"}, {"measurement": "cytotoxicity on dermal fibroblast cells (in words)", "setting": "dermal fibroblast cells", "value": "did not show strong cytotoxicity"}]}]}
